Measurements: ChEMBL document CHEMBL1201862, “PubChem BioAssay data set” (2004)
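These data come from cells grown in 96-well plates and exposed to compound for 48 hours at five concentrations. GI50 marks 50% less growth.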 The source made the active and inactive calls. No stated cut-off is given here; in the data, active = GI50 up to about 1.1 µM and inactive = higher.

Columns and labels:
Test in all cases: NCI anticancer screen, dose series, 48 h
[1] = tested on: SK-MEL-28
[2] = tested on: BT-549
[3] = tested on: UACC-62
[4] = tested on: SW-620
[5] = tested on: HOP-62
[6] = tested on: K562
[7] = tested on: HL-60
[8] = tested on: SK-MEL-2
[9] = tested on: SK-MEL-5
[10] = tested on: LOX IMVI
[11] = tested on: CCRF-CEM
[12] = tested on: 786-0
[13] = tested on: NCI-H522
[14] = tested on: CAKI-1
[15] = tested on: HCT-116
[16] = tested on: KM12
[17] = tested on: Malme-3M
[18] = tested on: OVCAR-8
[19] = tested on: SK-OV-3
[20] = tested on: HOP-92

| Structure (SMILES) | GI50 [1] | GI50 [2] | GI50 [3] | GI50 [4] | GI50 [5] | GI50 [6] | GI50 [7] | GI50 [8] | GI50 [9] | GI50 [10] | GI50 [11] | GI50 [12] | GI50 [13] | GI50 [14] | GI50 [15] | GI50 [16] | GI50 [17] | GI50 [18] | GI50 [19] | GI50 [20] |
| --- | --- | --- | --- | --- | --- | --- | --- | --- | --- | --- | --- | --- | --- | --- | --- | --- | --- | --- | --- | --- |
| Cc1c(C#N)c(N)[nH]c(=S)c1C#N | > 100 µM (inactive) | > 100 µM (inactive) | > 100 µM (inactive) | > 100 µM (inactive) | > 100 µM (inactive) | > 100 µM (inactive) | > 100 µM (inactive) | > 100 µM (inactive) | > 100 µM (inactive) | > 100 µM (inactive) | > 100 µM (inactive) | > 100 µM (inactive) | > 100 µM (inactive) | > 100 µM (inactive) | > 100 µM (inactive) | > 100 µM (inactive) | > 100 µM (inactive) | > 100 µM (inactive) | – | – |
| CCOC1(OCC)N=C(N)C2(C#N)C3(C(=O)N(C(C)C)N=C3C)C12C#N (stereo not given) | > 100 µM (inactive) | > 100 µM (inactive) | > 100 µM (inactive) | > 100 µM (inactive) | > 100 µM (inactive) | > 100 µM (inactive) | 0.893 µM (active) | > 100 µM (inactive) | – | – | 38.5 µM (inactive) | > 100 µM (inactive) | 79.1 µM (inactive) | > 100 µM (inactive) | > 100 µM (inactive) | > 100 µM (inactive) | > 100 µM (inactive) | > 100 µM (inactive) | > 100 µM (inactive) | > 100 µM (inactive) |
| COc1ccc2nc3c(C)cc4ccccc4n3c2c1 | > 100 µM (inactive) | > 100 µM (inactive) | > 100 µM (inactive) | 73.6 µM (inactive) | 75.3 µM (inactive) | 41.2 µM (inactive) | > 100 µM (inactive) | – | 57.9 µM (inactive) | – | 47.6 µM (inactive) | 48 µM (inactive) | – | – | 41.6 µM (inactive) | > 100 µM (inactive) | > 100 µM (inactive) | 72.1 µM (inactive) | > 100 µM (inactive) | 50.8 µM (inactive) |
| CN1C(=O)C(C#N)C2C[C@@]1(C)Oc1ccccc12 (stereo not given in full) | > 100 µM (inactive) | 64.9 µM (inactive) | > 100 µM (inactive) | > 100 µM (inactive) | > 100 µM (inactive) | > 100 µM (inactive) | > 100 µM (inactive) | > 100 µM (inactive) | > 100 µM (inactive) | > 100 µM (inactive) | > 100 µM (inactive) | > 100 µM (inactive) | > 100 µM (inactive) | > 100 µM (inactive) | > 100 µM (inactive) | > 100 µM (inactive) | – | > 100 µM (inactive) | > 100 µM (inactive) | > 100 µM (inactive) |
| O=S(=O)(O)c1ccc(/N=N/c2ccc(/N=N/c3c(O)ccc4ccc(S(=O)(=O)O)cc34)cc2)cc1 | > 100 µM (inactive) | > 100 µM (inactive) | > 100 µM (inactive) | > 100 µM (inactive) | > 100 µM (inactive) | > 100 µM (inactive) | > 100 µM (inactive) | > 100 µM (inactive) | > 100 µM (inactive) | – | > 100 µM (inactive) | > 100 µM (inactive) | > 100 µM (inactive) | > 100 µM (inactive) | > 100 µM (inactive) | > 100 µM (inactive) | > 100 µM (inactive) | > 100 µM (inactive) | > 100 µM (inactive) | > 100 µM (inactive) |
| CC(C)=NNC1=NC(C)(C)P(=O)(NNc2ncccn2)S1 (stereo not given) | > 100 µM (inactive) | > 100 µM (inactive) | > 100 µM (inactive) | > 100 µM (inactive) | > 100 µM (inactive) | > 100 µM (inactive) | – | > 100 µM (inactive) | > 100 µM (inactive) | – | – | > 100 µM (inactive) | > 100 µM (inactive) | > 100 µM (inactive) | > 100 µM (inactive) | – | – | > 100 µM (inactive) | > 100 µM (inactive) | > 100 µM (inactive) |
| C=C(C)[C@H]1C=C[C@@H](OC(=O)c2cccnc2)[C@@]23CO[C@@](C)([C@H](OC(=O)c4cccnc4)[C@@]4(OC(C)=O)C[C@H](C)[C@H](OCCC)[C@@H]4[C@H]2OC(C)=O)[C@H]13 | – | > 15 µM (inactive) | > 15 µM (inactive) | > 15 µM (inactive) | 10.9 µM (inactive) | 7.73 µM (inactive) | 3.35 µM (inactive) | > 15 µM (inactive) | > 15 µM (inactive) | > 15 µM (inactive) | 2.84 µM (inactive) | > 15 µM (inactive) | > 15 µM (inactive) | > 15 µM (inactive) | > 15 µM (inactive) | > 15 µM (inactive) | – | > 15 µM (inactive) | > 15 µM (inactive) | > 15 µM (inactive) |
| Nc1ccc2c(c1)S(=O)(=O)c1cc(N)ccc1-2 | – | > 100 µM (inactive) | > 100 µM (inactive) | > 100 µM (inactive) | > 100 µM (inactive) | > 100 µM (inactive) | 78.5 µM (inactive) | > 100 µM (inactive) | > 100 µM (inactive) | > 100 µM (inactive) | – | > 100 µM (inactive) | > 100 µM (inactive) | > 100 µM (inactive) | > 100 µM (inactive) | > 100 µM (inactive) | – | > 100 µM (inactive) | > 100 µM (inactive) | > 100 µM (inactive) |
